Structures are written as SMILES.

`O=C1CCCCCCC(=O)N(Cc2ccccc2)CCN(Cc2ccccc2)C(=O)CCCCCCC(=O)N(Cc2ccccc2)CCN1Cc1ccccc1` registered a logP of 5.1.
As for `O=C1COCC(=O)N(Cc2ccccc2)CCN(Cc2ccccc2)C(=O)COCC(=O)N(Cc2ccccc2)CCOCCN1Cc1ccccc1`, the figure is 3.8; as for `O=C(COCC(=O)N(C1CCCCC1)C1CCCCC1)N(C1CCCCC1)C1CCCCC1`, 6.7; as for `O=C1COCC(=O)N(Cc2ccccc2)CCN(c2ccccc2)CCN(Cc2ccccc2)C(=O)COCC(=O)NCCN1`, 2.2.
Regarding `O=C1COCC(=O)N(Cc2ccccc2)CCN(Cc2ccccc2)C(=O)COCC(=O)NCCN1`, the lipophilicity (logP) was 1.9.
`O=C1COCC(=O)N(Cc2ccccc2)CCN(Cc2ccccc2)C(=O)COCC(=O)N(Cc2ccccc2)CCN1Cc1ccccc1` showed a log partition coefficient (logP) of 3.8.
As for `CCN(Cc1ccccc1)C(=O)COCC(=O)N(CC)Cc1ccccc1`, the figure is 2.5.
As for `O=C1COCCOCC(=O)N(Cc2ccccc2)CCN(Cc2ccccc2)C(=O)COCCOCC(=O)N(Cc2ccccc2)CCN1Cc1ccccc1`, the figure is 3.8.
As for `O=C1COCC(=O)N(Cc2ccccc2)CCN(c2ccccc2)CCN(Cc2ccccc2)C(=O)COCC(=O)N(Cc2ccccc2)CCN1Cc1ccccc1`, the figure is 5.2.
Regarding `CCOC(=O)CCCCCCCCCCCN(C)C(=O)CO[C@@H](C)[C@H](C)OCC(=O)N(C)CCCCCCCCCCCC(=O)OCC`, the logP was 6.2.
For `O=C1COCC(=O)N(Cc2ccccc2)CCOCCN(Cc2ccccc2)C(=O)COCC(=O)N(Cc2ccccc2)CCOCCN1Cc1ccccc1` the value was 3.8.
For `O=C1COCC(=O)N(Cc2ccccc2)CCN(c2ccc(F)cc2)CCN(Cc2ccccc2)C(=O)COCC(=O)N(Cc2ccccc2)CCN1Cc1ccccc1` the value was 5.2.

What is called logP is a log measure of how a compound divides between an organic and an aqueous phase. High values mean a more lipophilic compound, low ones a more hydrophilic compound.

The values above are taken from the SangsterLogP compilation.
